This note sets out measurements from ChEMBL document CHEMBL1145342, “Structure-based drug design and structural biology study of novel nonpeptide inhibitors of severe acute respiratory syndrome coronavirus main protease” (J Med Chem, 2006).

Molecules are shown by their SMILES.

The first assay addresses Replicase polyprotein 1a (Severe acute respiratory syndrome-related coronavirus, UniProt P0C6U8). In words: Inhibition of SARS coronavirus main protease.
With `O=S(=O)(Cc1[nH]c(-c2ccc(Cl)s2)c[s+]1)c1cccs1`, 18 µM corresponded to half-maximal inhibition (IC50).

Turning to `CCOC(=O)/C(C#N)=C/Nc1ccc(S(=O)(=O)c2ccc(/N=C/C(C#N)=C(\O)OCC)cc2)cc1`, 16 µM corresponded to half-maximal inhibition (IC50). The IC50 values of the last two compounds are within 1.5-fold of each other.

As to `O=C(O)c1ccc(S(=O)(=O)c2cc(Br)c(O)c(Br)c2)cc1`, the IC50 (usually the concentration that inhibits the measured activity by half) worked out at 16 µM.

Consider `Cc1oc(C(C)(C)C)cc1-c1cc(NS(=O)(=O)c2cccs2)[nH]n1`, for which inhibition was half-maximal at 10 µM (IC50). Compared with the last compound, the IC50 is about 1.6-fold lower.

For the compound `CC1(C)CC(=O)c2c(NCc3ccco3)sc(C#N)c2C1`, the IC50 turned out to be 16 µM.

`CC(=O)c1ccccc1S(=O)(=O)c1ccccc1C(=O)O` registered a 50% inhibitory concentration (IC50) of 16 µM.

`O=C(Oc1ccc(S(=O)(=O)c2ccc(OC(=O)C(Cl)=C(Cl)Cl)cc2)cc1)C(Cl)=C(Cl)Cl` yielded a concentration for half-maximal inhibition (IC50) of 0.9 µM.

Compound `O=[N+]([O-])c1ccc(S(=O)(=O)c2ccc([N+](=O)[O-])cc2)cc1` came in with a half-inhibitory concentration (IC50) of 25 µM.

For the compound `CCOC(=O)C(=CNc1ccc(S(=O)(=O)c2ccc(/N=C/C(C(=O)OCC)=C(\O)OCC)cc2)cc1)C(=O)OCC`, half-maximal inhibition (IC50) required 32 µM.

With `CSc1[nH]nc(NC(=O)c2cccs2)c1S(=O)(=O)c1ccccc1`, half-maximal inhibition (IC50) was put at 15 µM.

As for `Cc1nn(C)c(NCc2ccc(-c3cccs3)s2)c1[N+](=O)[O-]`, the IC50 is 20 µM.

For the compound `O=[N+]([O-])c1cc(C(F)(F)F)ccc1S(=O)(=O)c1ccc(Cl)cc1`, it took 12 µM to reach half-maximal inhibition (IC50).

For `O=[N+]([O-])c1ccc(S(=O)(=O)c2ccc(Cl)cc2)[n+]([O-])c1`, the concentration for half-maximal inhibition (IC50) was found to be 15 µM.

The compound `Cc1noc(NC(=O)c2ccc(-c3cc(C(F)(F)F)nn3C)s2)c1[N+](=O)[O-]` showed an IC50 of 5 µM.

`O=C(Cc1nccs1)c1nccs1` displayed an IC50 of 40 µM.

As to `Nc1ncc(S(=O)(=O)c2ccc(Cl)cc2)c(N)n1`, the IC50 was 6 µM.

For a further assay, the target named is Replicase polyprotein 1a (Severe acute respiratory syndrome-related coronavirus) (UniProt P0C6U8). Put plainly: Inhibition of SARS coronavirus main protease at 10 uM.
For `COc1ccc([N+](=O)[O-])c(S(=O)(=O)c2ccccc2)n1`, the inhibition (usually the percentage by which the read-out fell short of the control) was found to be 58%.

Take `Clc1ccc(-c2noc(CSC3=NCCN3)n2)cc1`: the inhibition is 61%.
